Experimental data published in ChEMBL document CHEMBL1201862, “PubChem BioAssay data set” (2004).
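Exposure lasted 48 hours, with cells grown in 96-well plates and compounds tested at five concentrations. Here, GI50 denotes the concentration required for 50% inhibition of growth.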 Activity calls are given as the source filed them. No stated cut-off is given here; in the data, active = GI50 up to about 1.1 µM and inactive = higher.

Experiments:
Test in all cases: inhibition of tumour cell growth, NCI panel, 48 h
NCI/ADR-RES = test system: NCI/ADR-RES
Hs-578T = test system: Hs-578T
HT-29 = test system: HT-29
SK-MEL-28 = test system: SK-MEL-28
SNB-78 = test system: SNB-78
RXF 631 = test system: RXF 631
SN12C = test system: SN12C
SF-295 = test system: SF-295
DU-145 = test system: DU-145
NCI-H226 = test system: NCI-H226
UACC-257 = test system: UACC-257
HOP-18 = test system: HOP-18
K562 = test system: K562
COLO 205 = test system: COLO 205
DMS-114 = test system: DMS-114
RPMI-8226 = test system: RPMI-8226
SF-539 = test system: SF-539
PC-3 = test system: PC-3
SW-620 = test system: SW-620
NCI-H460 = test system: NCI-H460
OVCAR-5 = test system: OVCAR-5
CAKI-1 = test system: CAKI-1
MDA-MB-231 = test system: MDA-MB-231
MCF7 = test system: MCF7
HCT-116 = test system: HCT-116
MDA-N = test system: MDA-N
DLD-1 = test system: DLD-1
EKVX = test system: EKVX
NCI-H23 = test system: NCI-H23
LXFL 529 = test system: LXFL 529
DMS-273 = test system: DMS-273
ACHN = test system: ACHN
SK-MEL-2 = test system: SK-MEL-2
786-0 = test system: 786-0
M14 = test system: M14
UACC-62 = test system: UACC-62
XF498 = test system: XF498
NCI-H522 = test system: NCI-H522
HCC 2998 = test system: HCC 2998
SNB-19 = test system: SNB-19
OVCAR-3 = test system: OVCAR-3
HCT-15 = test system: HCT-15
Malme-3M = test system: Malme-3M
IGROV-1 = test system: IGROV-1
MOLT-4 = test system: MOLT-4
T47D = test system: T47D
KM-20L2 = test system: KM-20L2
OVCAR-8 = test system: OVCAR-8
UO-31 = test system: UO-31
BT-549 = test system: BT-549
HL-60 = test system: HL-60
MDA-MB-435 = test system: MDA-MB-435
CCRF-CEM = test system: CCRF-CEM
HOP-62 = test system: HOP-62
SR = test system: SR
HOP-92 = test system: HOP-92
U-251 = test system: U-251
LOX IMVI = test system: LOX IMVI
A549 = test system: A549
TK-10 = test system: TK-10
M19-MEL = test system: M19-MEL
RXF 393 = test system: RXF 393
SK-MEL-5 = test system: SK-MEL-5
A498 = test system: A498
KM12 = test system: KM12
SNB-75 = test system: SNB-75
SK-OV-3 = test system: SK-OV-3
SF-268 = test system: SF-268
OVCAR-4 = test system: OVCAR-4

## COc1ccccc1NC(=O)CC(=O)n1nc(C)c(/N=N/c2ccccc2Cl)c1C
NCI/ADR-RES
  GI50: > 100 µM (inactive)
Hs-578T
  GI50: > 100 µM (inactive)
HT-29
  GI50: > 100 µM (inactive)
SK-MEL-28
  GI50: > 100 µM (inactive)
SNB-78
  GI50: 5.12 µM (inactive)
RXF 631
  GI50: > 31.6 µM (inactive)
SN12C
  GI50: > 100 µM (inactive)
SF-295
  GI50: 83.4 µM (inactive)
DU-145
  GI50: > 100 µM (inactive)
NCI-H226
  GI50: > 100 µM (inactive)
UACC-257
  GI50: > 91.4 µM (inactive)
HOP-18
  GI50: > 100 µM (inactive)
K562
  GI50: > 90.2 µM (inactive)
COLO 205
  GI50: > 100 µM (inactive)
DMS-114
  GI50: > 100 µM (inactive)
RPMI-8226
  GI50: > 100 µM (inactive)
SF-539
  GI50: 56.1 µM (inactive)
PC-3
  GI50: > 100 µM (inactive)
SW-620
  GI50: > 100 µM (inactive)
NCI-H460
  GI50: > 100 µM (inactive)
OVCAR-5
  GI50: > 100 µM (inactive)
CAKI-1
  GI50: > 100 µM (inactive)
MDA-MB-231
  GI50: > 100 µM (inactive)
MCF7
  GI50: > 100 µM (inactive)
HCT-116
  GI50: > 100 µM (inactive)
MDA-N
  GI50: > 31.6 µM (inactive)
DLD-1
  GI50: > 100 µM (inactive)
EKVX
  GI50: > 90.4 µM (inactive)
NCI-H23
  GI50: > 37.2 µM (inactive)
LXFL 529
  GI50: > 100 µM (inactive)
DMS-273
  GI50: > 100 µM (inactive)
ACHN
  GI50: > 100 µM (inactive)
SK-MEL-2
  GI50: > 100 µM (inactive)
786-0
  GI50: > 100 µM (inactive)
M14
  GI50: > 100 µM (inactive)
UACC-62
  GI50: > 100 µM (inactive)
XF498
  GI50: > 100 µM (inactive)
NCI-H522
  GI50: > 100 µM (inactive)
HCC 2998
  GI50: > 100 µM (inactive)
SNB-19
  GI50: > 100 µM (inactive)
OVCAR-3
  GI50: > 100 µM (inactive)
HCT-15
  GI50: > 100 µM
Malme-3M
  GI50: > 100 µM (inactive)
IGROV-1
  GI50: > 100 µM (inactive)
MOLT-4
  GI50: 80.2 µM (inactive)
T47D
  GI50: > 100 µM (inactive)
KM-20L2
  GI50: > 100 µM (inactive)
OVCAR-8
  GI50: > 100 µM (inactive)
UO-31
  GI50: > 100 µM (inactive)
BT-549
  GI50: > 81.7 µM (inactive)
HL-60
  GI50: > 95.5 µM (inactive)
MDA-MB-435
  GI50: > 100 µM (inactive)
CCRF-CEM
  GI50: > 81.3 µM (inactive)
HOP-62
  GI50: 58.3 µM (inactive)
SR
  GI50: > 72.4 µM (inactive)
HOP-92
  GI50: > 93.8 µM (inactive)
U-251
  GI50: 27.8 µM (inactive)
LOX IMVI
  GI50: > 100 µM (inactive)
A549
  GI50: > 100 µM (inactive)
TK-10
  GI50: > 100 µM (inactive)
M19-MEL
  GI50: > 100 µM (inactive)
RXF 393
  GI50: > 100 µM (inactive)
SK-MEL-5
  GI50: > 100 µM (inactive)
A498
  GI50: > 100 µM (inactive)
KM12
  GI50: > 100 µM (inactive)
SNB-75
  GI50: 25.5 µM (inactive)
SK-OV-3
  GI50: 48.3 µM (inactive)
SF-268
  GI50: > 76 µM (inactive)
OVCAR-4
  GI50: > 100 µM (inactive)
